Measurements taken from ChEMBL document CHEMBL1687744, “Furanone at subinhibitory concentrations enhances staphylococcal biofilm formation by luxS repression” (Antimicrob Agents Chemother, 2009).
Values after ≈ are worked out from the molar mass of the structure shown. Each block holds one molecule with its values, some of them ahead of it. Active and inactive are the calls of the source. No cut-off for these calls is given here.

Tests used:
[1] = test system: Staphylococcus epidermidis; experiment: Bactericidal activity against Staphylococcus epidermidis 1457 at >50 uM after 18 hrs by CFU count assay; format: functional, organism-based
[2] = test system: L929; experiment: Cytotoxicity against mouse L929 cells after 24 hrs at 38.35 +/- 15.0 uM by LDH release assay; format: cell-based; details: l929, 24 h
[3] = test system: Staphylococcus epidermidis; experiment: Induction of biofilm formation in Staphylococcus epidermidis 1457 at 1 to 100 uM after 18 hrs by crystal violet staining; format: functional, organism-based
[4] = test system: L929; experiment: Cytotoxicity against mouse L929 cells after 24 hrs at 12.1 +/- 5.7 uM by LDH release assay; format: cell-based; details: l929, 24 h
[5] = test system: L929; experiment: Cytotoxicity against mouse L929 cells after 24 hrs at 18.6 +/- 12.3 uM by LDH release assay; format: cell-based; details: l929, 24 h
[6] = test system: Staphylococcus epidermidis; experiment: Antimicrobial activity against Staphylococcus epidermidis 1457 by macrodilution method; format: functional
[7] = test system: Staphylococcus epidermidis; experiment: Antimicrobial activity against ica gene-deficient Staphylococcus epidermidis 1457 by macrodilution method; format: functional
[8] = test system: Staphylococcus epidermidis; experiment: Antimicrobial activity against Staphylococcus epidermidis 047 by macrodilution method; format: functional
[9] = test system: Staphylococcus epidermidis; experiment: Antimicrobial activity against ica gene-deficient Staphylococcus epidermidis 047 by macrodilution method; format: functional
[10] = test system: Staphylococcus aureus; experiment: Antimicrobial activity against Staphylococcus aureus 113 by macrodilution method; format: functional
[11] = test system: Staphylococcus aureus; experiment: Antimicrobial activity against Staphylococcus aureus Newman by macrodilution method; format: functional
[12] = test system: Bacillus subtilis; experiment: Antimicrobial activity against Bacillus subtilis by macrodilution method; format: functional
[13] = test system: Staphylococcus epidermidis; experiment: Bactericidal activity against Staphylococcus epidermidis 1457 at >10 uM after 18 hrs by CFU count assay; format: functional, organism-based
[14] = test system: Staphylococcus epidermidis; experiment: Bactericidal activity against ica gene-deficient Staphylococcus epidermidis 1457 at >10 uM after 18 hrs by CFU count assay; format: functional, organism-based
[15] = test system: Staphylococcus epidermidis; experiment: Bactericidal activity against Staphylococcus epidermidis 047 at >10 uM after 18 hrs by CFU count assay; format: functional, organism-based
[16] = test system: Staphylococcus epidermidis; experiment: Bactericidal activity against ica gene-deficient Staphylococcus epidermidis 047 at >10 uM after 18 hrs by CFU count assay; format: functional, organism-based
[17] = test system: Staphylococcus aureus; experiment: Bactericidal activity against Staphylococcus aureus Newman at >10 uM after 18 hrs by CFU count assay; format: functional, organism-based
[18] = test system: Staphylococcus aureus; experiment: Bactericidal activity against Staphylococcus aureus 113 at >10 uM after 18 hrs by CFU count assay; format: functional, organism-based
[19] = test system: Staphylococcus epidermidis; experiment: Induction of biofilm formation in Staphylococcus epidermidis 1457 at 0.1 times MIC to 0.2 X MIC after 18 hrs by crystal violet staining; format: functional, organism-based
[20] = test system: Staphylococcus epidermidis; experiment: Increase in biofilm formation in Staphylococcus epidermidis 047 at 0.1 times MIC to 0.2 X MIC after 18 hrs by crystal violet staining; format: functional, organism-based
[21] = test system: Staphylococcus epidermidis; experiment: Induction of biofilm formation in ica gene-deficient Staphylococcus epidermidis 1457 after 18 hrs by crystal violet staining; format: functional, organism-based
[22] = test system: Staphylococcus epidermidis; experiment: Induction of biofilm formation in ica gene-deficient Staphylococcus epidermidis 047 after 18 hrs by crystal violet staining; format: functional, organism-based
[23] = test system: Staphylococcus aureus; experiment: Increase in biofilm formation in Staphylococcus aureus Newman after 18 hrs by crystal violet staining; format: functional, organism-based
[24] = test system: Staphylococcus aureus; experiment: Induction of biofilm formation in Staphylococcus aureus 113 after 18 hrs by crystal violet staining; format: functional, organism-based
[25] = test system: Bacillus subtilis; experiment: Induction of biofilm formation in Bacillus subtilis after 18 hrs by crystal violet staining; format: functional, organism-based
[26] = test system: Pseudomonas aeruginosa; experiment: Inhibition of biofilm formation of Pseudomonas aeruginosa PAO1 at 0.322 uM to 2.58 mM; format: functional, organism-based
[27] = test system: Pseudomonas aeruginosa; experiment: Antimicrobial activity against Pseudomonas aeruginosa PAO1 by macrodilution method; format: functional
[28] = test system: Staphylococcus epidermidis; experiment: Effect on agr quorum sensing system in Staphylococcus epidermidis 1457 assessed as RNA3 expression level at 2.5 to 20 uM; format: functional, organism-based
[29] = test system: Staphylococcus aureus; experiment: Increase in biofilm formation in agr gene-deficient Staphylococcus aureus Newman by crystal violet staining; format: functional, organism-based
[30] = test system: Staphylococcus aureus; experiment: Increase in biofilm formation in Staphylococcus aureus Newman by crystal violet staining; format: functional, organism-based
[31] = test system: Staphylococcus epidermidis; experiment: Reduction luxS mRNA level in Staphylococcus epidermidis 1457 at 20 uM; format: functional, organism-based
[32] = test system: Staphylococcus epidermidis; experiment: Effect on biofilm formation in luxS gene-deficient Staphylococcus epidermidis 1457 at >10 uM by crystal violet staining; format: functional, organism-based
[33] = test system: L929; experiment: Cytotoxicity against mouse L929 cells after 24 hrs at 28.4 +/- 8.4 uM by LDH release assay; format: cell-based; details: l929, 24 h
[34] = test system: Staphylococcus epidermidis; experiment: Increase in polysaccharide intercellular adhesin in Staphylococcus epidermidis 1457 at 2.5 to 20 uM by ant-PIA staining; format: functional, organism-based

SMILES: C#CCOC(CCC)C1=C(Br)/C(=C/Br)OC1=O (configuration not stated)
Activity [1]: Active
Activity [2]: 30%
Activity [3]: inactive

SMILES: CCCC(OCCOCCOCCN=[N+]=[N-])C1=C(Br)/C(=C/Br)OC1=O (configuration not stated)
Activity [1]: Active
Activity [4]: 30%
Activity [3]: inactive

SMILES: CCCC(Br)C1=C(Br)/C(=C/Br)OC1=O (configuration not stated)
Activity [1]: Active
Activity [5]: 30%
Activity [3]: inactive

MIC [6]: 50 µM (≈ 15.5 µg/mL)
MIC [7]: 65 µM (≈ 20.1 µg/mL)
MIC [8]: 50 µM (≈ 15.5 µg/mL)
MIC [9]: 30 µM (≈ 9.3 µg/mL)
MIC [10]: 15 µM (≈ 4.65 µg/mL)
MIC [11]: 15 µM (≈ 4.65 µg/mL)
MIC [12]: 100 µM (≈ 31 µg/mL)
MIC [27]: > 130 µM
SMILES: CCCCC1=C(Br)/C(=C/Br)OC1=O
MBC [6]: > 130 µM
MBC [7]: > 130 µM
MBC [8]: > 130 µM
MBC [9]: > 130 µM
MBC [10]: > 130 µM
MBC [11]: > 130 µM
MBC [12]: 100 µM (≈ 31 µg/mL)
Activity [13]: Active
Activity [14]: Active
Activity [15]: Active
Activity [16]: Active
Activity [17]: Active
Activity [18]: Active
Activity [1]: Active
Activity [19]: Active
Activity [20]: Active
Activity [21]: inactive
Activity [22]: inactive
Activity [23]: Active
Activity [24]: inactive
Activity [25]: inactive
inhibition [26]: Active
MBC [27]: > 130 µM
Activity [28]: inactive
Activity [29]: Active
Activity [30]: Active
Activity [31]: Active
Activity [32]: inactive
Activity [33]: 30%
Activity [34]: Active
